Results on 1 substance are retold here after patent US8309790B2, “Animal models for demyelination disorders” (University of Chicago, priority 2005, dated 2012).

The subject of assay [1] is oligodendrocytes in adult mice. Put plainly: IFN-γ expression in the CNS of adult double transgenic mice (released from doxycycline at 4 weeks of age). It counts as in vivo. The text has this:
Compared with the actively myelinating oligodendrocytes of young growing animals, oligodendrocytes in adult mice produce lower levels of membrane proteins and lipids, just enough to maintain homeostasis in the myelin structure (Morell, et al. (1999) Basic Neurochemistry: Molecular, Cellular, and Medical Aspects (Philadelphia, Pa.: Lippincott-Raven Publishers): 69-93). The ER of oligodendrocytes in adult animals may thus have more spare capacity to process increased protein load and as such may be less sensitive to disruptions of the protein secretory pathway. To examine this possibility, double transgenic mice were allowed to develop to maturity, at which time IFN-γ expression in the CNS was initiated.

Assay [2] has as its system transgenic littermates overexpressing IFN-γ and/or SOCS1. The assay can be described thus: IFN-γ-overexpressing mice crossed to PLP/SOCS1 mice, clinical and histological evaluation at postnatal day 21. Format: in vivo. The note with it: for oligodendrocyte density: corpus callosum, postnatal day 21; for G ratio (axon diameter/fiber diameter ratio): hypomyelination defined as G ratio>0.8. The text has this:
The transgenic mice MBP/IFN-γ and GFAP/tTA×TRE/IFN-γ (lines 184/110 and 184/67) that overexpress IFN-γ in the CNS have been described elsewhere (Corbin et al., 1996; Gao et al., 2000; Lin et al., 2004, 2005). Briefly, MBP/IFN-γ mice are transgenic animals in which IFN-γ expression is driven by the myelin basic protein (MBP) transcriptional control region (Gao et al., 2000). GFAP/tTA×TRE/IFN-γ are double-transgenic mice obtained by mating single-transgenic GFAP/tTA to single-transgenic TRE/IFN-γ (lines 110 and 67) mice. The two TRE/IFN-γ mouse lines, line 110 and line 67, used in the experiments produce different amounts of IFN-γ when crossed to GFA/tTA mice (184/110 and 184/67) (Lin e al., 2004, 2005). GFAP/tTA×TRE/IFN-γ is a tetracycline-off-inducible system in which the glial fibrilary acidic protein (GFAP) transcriptional control region drives the expression of tTA, which in turn, binds to the TRE (tet responsive element) and initiates the expression of IFN-γ. Administration of doxycycline suppresses tTA DNA binding and IFN-γ expression, and doxycycline removal allows for temporally-controlled induction of IFN-γ expression (Gao et al., 1999).
IFN-γ-overexpressing mice were crossed to the PLP/SOCS1 mice in double-transgenic, (MBP/IFN-γ×PLP/SOCS1) and triple-transgenic (GFAP/tTA×TRE/IFN-γ×PLP/SOCS1) mating systems. MBP/IFN-γ×PLP/SOCS1 (172×PLP/SOCS1) mating was performed according to a standard mating protocol. The GFAP/tTA×TRE/IFN-γ×PLP/SOCS1 matings were performed in a 2-step mating process: GFAP/tTA mice were initially crossed to PLP/SOCS1 mice, and double-positive (184×PLP/SOCS1) offspring were then crossed to the TRE/IFN-γ lines 110 and 67, separately. This second mating step was performed according to the previously described “tet-off” protocol. Doxycycline 0.05 mg/ml (Sigma-Aldich) was added to the water of impregnated female mice until embryonic day 14, after which the animals were switched back to normal water, thereby allowing initiation of IFN-γ transcription, which peaks during the postnatal period (Lin et al., 2005).
The litters of the mating systems (F1 generation) were examined daily and sacrificed at postnatal day 21. Clinical evaluation included behavioral observation and challenged ladder walking to elicit tremor. Histological examination included quantitation of the number and density of oligodendrocytes and examination of the myelination patterns. Brain tissue was simultaneously obtained from each animal at the time of sacrifice to verify and measure the expression of IFN-γ and Flag-SOCS1 (see below). The clinical and histological findings were subsequently stratified according to genotype. All animal procedures were conducted in compliance with the National Institutes of Health Guide for Care and Use of Laboratory Animals and were approved by the Institutional Animal Care and Use Committee at The University of Chicago.
Oligodendrocyte cell density was assessed digitally using Axiovision software, at postnatal day 21, as previously described (Lin et al., 2005). The brains were sectioned sagittally through the corpus callosum dividing the brain in two symmetrical halves. Ten frozen sections from each half were prepared at 7 μm thickness, and numbered in the sequence of their preparation. The brains of three animals per study group were prepared in this fashion. Following the CC1 immunostaining the corresponding area of corpus callosum of each section was digitally selected and the corresponding total area obtained. CC1 cell counting was performed manually within the selected areas of each section, and the number of CC1 positive cells per square area (mm^2) calculated. The results were presented as mean±SD of CC1 (+) cells/mm^2 with n=3 animals per study group. […]

As for interferon-γ [IFN-γ], the “BIP and CHOP in the cerebellum” value in assay [1] (10-week-old mice released from doxycycline at 4 weeks of age) is “modest induction”. The oligodendrocyte survival entry in assay [1] (adult mice, wild-type or PERK+/− background) is “did not affect”. Further, the Incidence of tremor in assay [2] (172 × PLP/SOCS1 mating system, ten mice per group) is 0%. Also, in assay [2] (184/67 × PLP/SOCS1 system), the oligodendrocytes lost result is reported as “approximately 40%”, the “percentage of unmyelinated axons” value is recorded as 57%±7, the oligodendrocyte density is given as 79±9 CC1 (+) cells/mm^2 and the “G ratio (axon diameter/fiber diameter ratio)” value is 0.95±0.04. For the same substance, in assay [2] (184/110 × PLP/SOCS1 system), the oligodendrocytes lost result is on record as “approximately 20%”, the “percentage of unmyelinated axons” value is recorded as 41%±6, the oligodendrocyte density was 115±8 CC1 (+) cells/mm^2 and the “G ratio (axon diameter/fiber diameter ratio)” value is reported as 0.89±0.02.
